Measured values reported in ChEMBL document CHEMBL1667785, “Synthesis and structure-analgesic activity relationships of a novel series of monospirocyclopiperazinium salts (MSPZ)” (Bioorg Med Chem Lett, 2011).

What was measured:
Mus musculus = test: Analgesic activity in mouse assessed as inhibition of acetic acid-induced writhing at 20 umol/kg, sc administered 30 mins before to acetic acid challenge measured after 5 mins for 10 mins relative to control; format: functional; parameters: scale not given: the % may be the effect or the level left
[1] = biological target: Neuronal acetylcholine receptor subunit beta-2 (Homo sapiens, UniProt P17787); test: Binding affinity to beta2 nAChR
Neuronal acetylcholine receptor subunit beta-2, sequence (P17787 whole entry): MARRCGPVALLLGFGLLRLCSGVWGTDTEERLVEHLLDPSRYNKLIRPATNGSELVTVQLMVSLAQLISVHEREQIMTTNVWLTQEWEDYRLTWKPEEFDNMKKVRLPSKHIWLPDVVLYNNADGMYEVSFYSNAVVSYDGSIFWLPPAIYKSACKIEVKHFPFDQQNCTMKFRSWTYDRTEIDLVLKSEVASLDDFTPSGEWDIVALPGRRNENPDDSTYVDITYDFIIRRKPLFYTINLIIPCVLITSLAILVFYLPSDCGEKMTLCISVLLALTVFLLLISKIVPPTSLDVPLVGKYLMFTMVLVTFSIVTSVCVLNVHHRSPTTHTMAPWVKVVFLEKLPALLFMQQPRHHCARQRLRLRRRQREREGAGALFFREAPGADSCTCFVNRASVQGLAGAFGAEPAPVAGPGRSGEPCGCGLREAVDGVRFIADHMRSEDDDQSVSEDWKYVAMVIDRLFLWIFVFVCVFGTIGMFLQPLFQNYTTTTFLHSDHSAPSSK

[2] = biological target: Neuronal acetylcholine receptor subunit alpha-7 (Homo sapiens, UniProt P36544); test: Binding affinity to alpha7 nAChR
Neuronal acetylcholine receptor subunit alpha-7, sequence (P36544 whole entry): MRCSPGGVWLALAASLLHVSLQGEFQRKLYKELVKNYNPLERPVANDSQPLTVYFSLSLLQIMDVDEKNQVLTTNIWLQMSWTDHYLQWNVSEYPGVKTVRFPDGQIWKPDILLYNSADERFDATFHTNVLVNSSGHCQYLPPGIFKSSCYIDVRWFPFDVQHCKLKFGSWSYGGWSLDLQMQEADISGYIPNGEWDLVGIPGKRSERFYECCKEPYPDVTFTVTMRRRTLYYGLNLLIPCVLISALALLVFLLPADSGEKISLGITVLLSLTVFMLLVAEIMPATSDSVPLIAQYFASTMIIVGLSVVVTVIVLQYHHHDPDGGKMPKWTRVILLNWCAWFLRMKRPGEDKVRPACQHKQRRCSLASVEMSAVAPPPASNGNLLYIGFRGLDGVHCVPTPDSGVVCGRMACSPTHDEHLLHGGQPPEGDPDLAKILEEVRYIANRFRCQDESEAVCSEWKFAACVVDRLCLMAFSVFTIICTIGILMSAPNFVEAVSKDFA

Row | Compound | Activity (Mus musculus) | other results
1 | COc1ccc(N2CC[N+](C)(C)CC2)cc1.[Cl-] | 56% | –
2 | CCCC[N+]1(CCCC)CCN(c2ccc(OC)cc2)CC1.[Cl-] | 54% | –
3 | COc1ccc(N2CC[N+](C)(Cc3ccccc3)CC2)cc1.[Cl-] | 43% | –
4 | COc1ccc(N2CC[N+]3(CCCC3)CC2)cc1.[Cl-] | 41% | –
5 | COc1ccc(N2CC[N+]3(CCCCC3)CC2)cc1.[Cl-] | 26% | –
6 | COc1ccc(N2CC[N+]3(CCCCCC3)CC2)cc1.[Cl-] | 28% | –
7 | COc1ccc(N2CC[N+]3(CCOCC3)CC2)cc1.[Cl-] | 41% | –
8 | COc1ccc(N2CC[N+]3(CC2)CC(C)OC(C)C3)cc1.[Cl-] (centres undefined) | 21% | –
9 | COc1ccc(N2CC[N+]3(CCNCC3)CC2)cc1.[Cl-] | 5% | –
10 | COc1ccc(N2CC[N+]3(CCN(C)CC3)CC2)cc1.[Cl-] | 32% | –
11 | COc1ccc(N2CC[N+]3(CCN(CCc4ccccc4)CC3)CC2)cc1.[Cl-] | 27% | –
12 | COc1ccc(N2CC[N+]3(CC2)CCN(c2ccc(OC)cc2)CC3)cc1.[Cl-] | 17% | –
13 | COc1ccc(N2CC[N+]3(CCN(C(=O)c4ccccc4)CC3)CC2)cc1.[Cl-] | 50% | –
14 | COc1ccc(N2CC[N+]3(CCc4ccccc43)CC2)cc1.[Cl-] | 63% | –
15 | [Cl-].c1ccc(N2CC[N+]3(CCc4ccccc43)CC2)cc1 | 28% | –
16 | CS(=O)(=O)[O-].O=[N+]([O-])c1ccc(N2CC[N+]3(CCc4ccccc43)CC2)cc1 | 54% | –
17 | CS(=O)(=O)[O-].O=[N+]([O-])c1cccc(N2CC[N+]3(CCc4ccccc43)CC2)c1 | 39% | –
18 | COc1cccc(N2CC[N+]3(CCc4ccccc43)CC2)c1.[Cl-] | 37% | –
19 | Oc1cccc(N2CC[N+]3(CCc4ccccc43)CC2)c1.[Cl-] | 34% | –
20 | CC(=O)Nc1cccc(N2CC[N+]3(CCc4ccccc43)CC2)c1.[Cl-] | 39% | –
21 | Clc1ccccc1N1CC[N+]2(CCc3ccccc32)CC1.[Cl-] | 44% | –
22 | COc1ccccc1N1CC[N+]2(CCc3ccccc32)CC1.[Cl-] | 39% | –
23 | CC(COc1ccc(/C=C\c2ccccc2)cc1)[N+](C)(C)C (centres undefined) | – | Ki [1]: 39 µM; Ki [2]: 0.057 µM
